Several values for one entry are separate records, joined by “and”; a condition that tells them apart may be missing. Equal entries are not always repeated. Square brackets hold non-standard residues; d marks the D form. Peptide text beside a SMILES is read from it. Hyp = O=C(O)[C@@H]1C[C@@H](O)CN1
Biological target: T1, recombinant human cGAS enzyme (hcGAS-ΔN, residues 147–522) (Homo sapiens, UniProt Q8N884)
T1 construct: N-terminally truncated human cGAS (hcGAS-ΔN, residues 147–522); 6xHis-SUMO (N, cleaved yes); made in house; host or cells: Escherichia coli BL21 (DE3)
T1 sequence (Q8N884 147-522, stated change not applied): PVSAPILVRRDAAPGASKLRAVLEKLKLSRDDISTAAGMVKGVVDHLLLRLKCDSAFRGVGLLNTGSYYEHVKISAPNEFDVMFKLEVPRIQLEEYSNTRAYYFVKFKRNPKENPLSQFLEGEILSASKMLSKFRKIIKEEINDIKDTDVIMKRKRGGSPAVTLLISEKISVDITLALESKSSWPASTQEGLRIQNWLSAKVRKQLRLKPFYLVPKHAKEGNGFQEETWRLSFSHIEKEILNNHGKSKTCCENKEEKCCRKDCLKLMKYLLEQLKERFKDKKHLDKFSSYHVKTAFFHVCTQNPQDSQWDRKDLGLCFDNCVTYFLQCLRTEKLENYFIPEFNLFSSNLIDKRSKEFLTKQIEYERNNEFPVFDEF
Assay: RNA-based fluorescent biosensor assay of cGAS activity (2',3'-cGAMP formation), in vitro screening
Format: biochemical
Settings: for Remaining activity (%), Fig. 1a source data / remaining activity at 20 µM: 20 μM, replicate values; for remaining activity at 20 µM: read-out: Remaining activity (%), Fig. 1a source data; for inhibition at 20 µM: peptides screened at 20 μM, Supplementary Table 1 / Fig. S5b, read-out: Inhibition %
Source text: To screen direct cGAS inhibitors targeting protein-DNA interface from our developed focused library of macrocyclic peptides, we applied an RNA-based fluorescent biosensor for 2’,3’-cGAMP to detect cGAS activity in vitro (Supplementary Fig. 1a)[49]. The formation of 2’,3’-cGAMP from ATP and GTP was catalyzed by recombinant human cGAS enzyme (hcGAS-ΔN, residues 147–522, Supplementary Fig. 1b) in the presence of ISD (interferon stimulatory DNA, a 45-bp dsDNA), which was readily quantified by the RNA-based fluorescent biosensor and was further confirmed by ion exchange chromatography (Supplementary Fig. 1c). […] Subsequently, a total of 90 macrocyclic peptides were screened at a concentration of 20 μM (Fig. 1a and Supplementary Fig. 1e), and 4 hits (XQ2, XQ8, XQ19, and XQ46) were obtained for further testing at a cut-off of 40% inhibition (Supplementary Table 1). To evaluate the inhibitory effect of the hits against cGAS in cells, we employed real-time quantitative PCR (qPCR) to examine mRNA levels of IFNΒ1 in THP1 cells. The reported cGAS inhibitor RU.521 was used as the positive control, and the non-active peptide XQ28 in the screening assay was used as the negative control. […] The inhibition of cGAS by these hits was further confirmed in the reporter cell line THP1-Lucia ISG (Invivogen) that expresses secreted luciferase induced by an IRF3-inducible ISG54 promoter (Fig. 1c). The discrepancy between the inhibitory effect of the hits in protein and cellular assays may be attributed to their different cellular permeability.
The high-throughput screening (HTS) experiments of cGAS activity are based on the method previously described. To initiate the enzyme reaction, ISD was added to the reaction solution (40 mM Tris-HCl, pH 7.5, 100 mM NaCl, 10 mM MgCl2) containing hcGAS-ΔN, ATP (Sangon Biotech, Cat# A600311) and GTP (Sangon Biotech, Cat# A620332) in a total volume of 20 ul with the final concentration of 0.5 μM, 1.5 μM, 1 mM, 1 mM, respectively, and incubated for 2 h at 37 °C. For HTS experiments, compounds were added to the same reaction conditions as described above with the final concentration of 20 μM. Z’ factors were calculated from three replicates in the 384-well plate.

Structure (SMILES): CC(C)C[C@@H]1NC(=O)[C@H](CCCNC(=N)N)NC(=O)[C@H](C(C)C)NC(=O)[C@@H]2CCCN2C(=O)[C@@H](Cc2ccccc2)NC(=O)[C@H](CC(C)C)NC(=O)[C@H](CCCNC(=N)N)NC(=O)[C@H](C(C)C)NC(=O)[C@@H]2CCCN2C(=O)[C@@H](C)NC1=O [XQ1, Cyclo (LaPVRLfPVR)] (cyclo(L[dA]PVRL[dF]PVR))
- Remaining activity (%), Fig. 1a source data: 76.5914% and 76.7702%
- remaining activity at 20 µM: 76.9%
- inhibition at 20 µM: 23%

Structure (SMILES): CC(C)C[C@@H]1NC(=O)[C@H](CCCNC(=N)N)NC(=O)[C@H](C(C)C)NC(=O)[C@@H]2CCCN2C(=O)[C@@H](Cc2ccccc2)NC(=O)[C@H](CC(C)C)NC(=O)[C@H](CCCNC(=N)N)NC(=O)[C@H](C)NC(=O)[C@@H]2CCCN2C(=O)[C@@H](Cc2ccccc2)NC1=O [XQ3, Cyclo (LfPARLfPVR)] (cyclo(ARL[dF]PVRL[dF]P))
- Remaining activity (%), Fig. 1a source data: 67.2186% and 66.8539%
- remaining activity at 20 µM: 67.1%
- inhibition at 20 µM: 33%

Structure (SMILES): CC(C)C[C@@H]1NC(=O)[C@H](C)NC(=O)[C@H](C(C)C)NC(=O)[C@@H]2CCCN2C(=O)[C@@H](Cc2ccccc2)NC(=O)[C@H](CC(C)C)NC(=O)[C@H](CCCNC(=N)N)NC(=O)[C@H](C(C)C)NC(=O)[C@@H]2CCCN2C(=O)[C@@H](Cc2ccccc2)NC1=O [XQ4, Cyclo (LfPVALfPVR)] (cyclo(AL[dF]PVRL[dF]PV))
- Remaining activity (%), Fig. 1a source data: 84.7804% and 84.3938%
- remaining activity at 20 µM: 84.5%
- inhibition at 20 µM: 16%

Structure (SMILES): CC(C)C[C@@H]1NC(=O)[C@H](CCCNC(=N)N)NC(=O)[C@H](C(C)C)NC(=O)[C@@H]2CCCN2C(=O)[C@@H](Cc2ccccc2)NC(=O)[C@H](C)NC(=O)[C@H](CCCNC(=N)N)NC(=O)[C@H](C(C)C)NC(=O)[C@@H]2CCCN2C(=O)[C@@H](Cc2ccccc2)NC1=O [XQ5, Cyclo (AfPVRLfPVR)] (cyclo(A[dF]PVRL[dF]PVR))
- Remaining activity (%), Fig. 1a source data: 92.0132% and 91.3002%
- remaining activity at 20 µM: 92.3%
- inhibition at 20 µM: 8%

Structure (SMILES): CC(C)C[C@@H]1NC(=O)[C@H](CCCNC(=N)N)NC(=O)[C@H](C(C)C)NC(=O)[C@@H]2C[C@@H](O)CN2C(=O)[C@@H](Cc2ccccc2)NC(=O)[C@H](CC(C)C)NC(=O)[C@H](CCCNC(=N)N)NC(=O)[C@H](C(C)C)NC(=O)[C@@H]2CCCN2C(=O)[C@@H](Cc2ccccc2)NC1=O [XQ6, Cyclo (LfPVRLf(Hyp)VR)] (cyclo([Hyp]VRL[dF]PVRL[dF]))
- Remaining activity (%), Fig. 1a source data: 68.1038% and 66.5986%
- remaining activity at 20 µM: 66.6%
- inhibition at 20 µM: 32%

Structure (SMILES): CC(C)C[C@@H]1NC(=O)[C@H](CCCNC(=N)N)NC(=O)[C@H](C(C)C)NC(=O)[C@@H]2CCCN2C(=O)[C@@H](C)NC(=O)[C@H](CC(C)C)NC(=O)[C@H](CCCNC(=N)N)NC(=O)[C@H](C(C)C)NC(=O)[C@@H]2CCCN2C(=O)[C@@H](C)NC1=O [XQ7, Cyclo (LaPVRLaPVR)] (cyclo(L[dA]PVRL[dA]PVR))
- Remaining activity (%), Fig. 1a source data: 101.466% and 100.76%
- remaining activity at 20 µM: 101%
- inhibition at 20 µM: 0%

Structure (SMILES): CC(C)C[C@@H]1NC(=O)[C@H](CCCNC(=N)N)NC(=O)[C@H](C)NC(=O)[C@@H]2CCCN2C(=O)[C@@H](Cc2ccccc2)NC(=O)[C@H](CC(C)C)NC(=O)[C@H](CCCNC(=N)N)NC(=O)[C@H](C)NC(=O)[C@@H]2CCCN2C(=O)[C@@H](Cc2ccccc2)NC1=O [XQ9, Cyclo (LfPARLfPAR)] (cyclo(ARL[dF]PARL[dF]P))
- Remaining activity (%), Fig. 1a source data: 109.335% and 107.433%
- remaining activity at 20 µM: 108%
- inhibition at 20 µM: 0%

Structure (SMILES): CC(C)[C@@H]1NC(=O)[C@@H]2CCCN2C(=O)[C@@H](Cc2ccccc2)NC(=O)[C@H](C)NC(=O)[C@H](CCCNC(=N)N)NC(=O)[C@H](C(C)C)NC(=O)[C@@H]2CCCN2C(=O)[C@@H](Cc2ccccc2)NC(=O)[C@H](C)NC(=O)[C@H](CCCNC(=N)N)NC1=O [XQ10, Cyclo (AfPVRAfPVR)] (cyclo(A[dF]PVRA[dF]PVR))
- Remaining activity (%), Fig. 1a source data: 103.793% and 104.243%
- remaining activity at 20 µM: 103%
- inhibition at 20 µM: 0%

Structure (SMILES): CC(C)C[C@@H]1NC(=O)[C@H](CCCNC(=N)N)NC(=O)[C@H](C(C)C)NC(=O)[C@@H]2CCCN2C(=O)[C@@H](Cc2c[nH]c3ccccc23)NC(=O)[C@H](CC(C)C)NC(=O)[C@H](CCCNC(=N)N)NC(=O)[C@H](C(C)C)NC(=O)[C@@H]2CCCN2C(=O)[C@@H](Cc2c[nH]c3ccccc23)NC1=O [XQ11, Cyclo (LwPVRLwPVR)] (cyclo(L[dW]PVRL[dW]PVR))
- Remaining activity (%), Fig. 1a source data: 86.4291% and 86.3946%
- remaining activity at 20 µM: 85.2%
- inhibition at 20 µM: 14%

Structure (SMILES): CC(C)C[C@@H]1NC(=O)[C@H](CCCNC(=N)N)NC(=O)[C@H](C(C)C)NC(=O)[C@@H]2C[C@@H](O)CN2C(=O)[C@@H](Cc2ccccc2)NC(=O)[C@H](CC(C)C)NC(=O)[C@H](CCCNC(=N)N)NC(=O)[C@H](C(C)C)NC(=O)[C@@H]2C[C@@H](O)CN2C(=O)[C@@H](Cc2ccccc2)NC1=O [XQ12, Cyclo (Lf(Hyp)VRLf(Hyp)VR)] (cyclo([Hyp]VRL[dF][Hyp]VRL[dF]))
- Remaining activity (%), Fig. 1a source data: 93.4229% and 93.3308%
- remaining activity at 20 µM: 93.7%
- inhibition at 20 µM: 7%

Structure (SMILES): CC(C)C[C@@H]1NC(=O)[C@H](CCCNC(=N)N)NC(=O)[C@H](C)NC(=O)[C@@H]2CCCN2C(=O)[C@@H](Cc2ccccc2)NC(=O)[C@H](C)NC(=O)[C@H](CCCNC(=N)N)NC(=O)[C@H](C(C)C)NC(=O)[C@@H]2CCCN2C(=O)[C@@H](Cc2ccccc2)NC1=O [XQ13, Cyclo (AfPARLfPVR)] (cyclo(ARL[dF]PVRA[dF]P))
- Remaining activity (%), Fig. 1a source data: 92.7452% and 92.4625%
- remaining activity at 20 µM: 93.4%
- inhibition at 20 µM: 7%

Structure (SMILES): CC(C)C[C@@H]1NC(=O)[C@H](CCCNC(=N)N)NC(=O)[C@H](C(C)C)NC(=O)[C@@H]2CCCN2C(=O)[C@@H](C)NC(=O)[C@H](C)NC(=O)[C@H](CCCNC(=N)N)NC(=O)[C@H](C(C)C)NC(=O)[C@@H]2CCCN2C(=O)[C@@H](Cc2ccccc2)NC1=O [XQ14, Cyclo (AaPVRLfPVR)] (cyclo(A[dA]PVRL[dF]PVR))
- Remaining activity (%), Fig. 1a source data: 96.1851% and 95.3459%
- remaining activity at 20 µM: 96%
- inhibition at 20 µM: 4%

Structure (SMILES): CC(C)C[C@@H]1NC(=O)[C@H](CCCNC(=N)N)NC(=O)[C@H](C(C)C)NC(=O)[C@@H]2CCCN2C(=O)[C@@H](Cc2ccccc2)NC(=O)[C@H](C)NC(=O)[C@H](CCCNC(=N)N)NC(=O)[C@H](C)NC(=O)[C@@H]2CCCN2C(=O)[C@@H](Cc2ccccc2)NC1=O [XQ15, Cyclo (AfPVRLfPAR)] (cyclo(ARA[dF]PVRL[dF]P))
- Remaining activity (%), Fig. 1a source data: 110.709% and 110.469%
- remaining activity at 20 µM: 110%
- inhibition at 20 µM: 0%

Structure (SMILES): CC(C)C[C@@H]1NC(=O)[C@H](CCCNC(=N)N)NC(=O)[C@H](C)NC(=O)[C@@H]2CCCN2C(=O)[C@@H](Cc2ccccc2)NC(=O)[C@H](C)NC(=O)[C@H](CCCNC(=N)N)NC(=O)[C@H](C)NC(=O)[C@@H]2CCCN2C(=O)[C@@H](Cc2ccccc2)NC1=O [XQ16, Cyclo (AfPARLfPAR)] (cyclo(ARA[dF]PARL[dF]P))
- Remaining activity (%), Fig. 1a source data: 99.1383% and 98.554%
- remaining activity at 20 µM: 98.3%
- inhibition at 20 µM: 1%

Structure (SMILES): CC(C)C[C@@H]1NC(=O)[C@H](CCCNC(=N)N)NC(=O)[C@H](C(C)C)NC(=O)[C@@H]2CCCN2C(=O)[C@@H](C)NC(=O)[C@H](C)NC(=O)[C@H](CCCNC(=N)N)NC(=O)[C@H](C(C)C)NC(=O)[C@@H]2CCCN2C(=O)[C@@H](C)NC1=O [XQ17, Cyclo (AaPVRLaPVR)] (cyclo(A[dA]PVRL[dA]PVR))
- Remaining activity (%), Fig. 1a source data: 66.7673% and 68.063%
- remaining activity at 20 µM: 67.2%
- inhibition at 20 µM: 32%

Structure (SMILES): CC(C)[C@@H]1NC(=O)[C@@H]2CCCN2C(=O)[C@@H](Cc2ccccc2)NC(=O)[C@H](C)NC(=O)[C@H](CCCNC(=N)N)NC(=O)[C@H](C)NC(=O)[C@@H]2CCCN2C(=O)[C@@H](Cc2ccccc2)NC(=O)[C@H](C)NC(=O)[C@H](CCCNC(=N)N)NC1=O [XQ18, Cyclo (AfPARAfPVR)] (cyclo(ARA[dF]PVRA[dF]P))
- Remaining activity (%), Fig. 1a source data: 93.9479% and 95.218%
- remaining activity at 20 µM: 94.3%
- inhibition at 20 µM: 5%

Structure (SMILES): CC(C)[C@@H]1NC(=O)[C@H](C)NC(=O)[C@@H](Cc2ccccc2)NC(=O)[C@H](C)NC(=O)[C@H](CCCNC(=N)N)NC(=O)[C@H](C(C)C)NC(=O)[C@@H]2CCCN2C(=O)[C@@H](Cc2ccccc2)NC(=O)[C@H](C)NC(=O)[C@H](CCCNC(=N)N)NC1=O [XQ20, Cyclo (AfAVRAfPVR)] (cyclo(AVRA[dF]PVRA[dF]))
- Remaining activity (%), Fig. 1a source data: 88.8732% and 88.6928%
- remaining activity at 20 µM: 89.1%
- inhibition at 20 µM: 11%

Reference: publication PMC10545747, “Development of cyclopeptide inhibitors of cGAS targeting protein-DNA interaction and phase separation” (Nature Communications, 2023)
